Experiment [1] has as its system CNE-2. The experiment in a line: Antiproliferative activity against human CNE-2 cells assessed as reduction in cell viability incubated for 48 hrs by MTT assay. Type of experiment: functional, cell-based. The conditions noted are these: CNE-2, 48 h.
Experiment [2] deals with Serine/threonine-protein kinase mTOR (Homo sapiens, UniProt P42345). As to the kind of experiment: Inhibition of mTOR (unknown origin) using U-Light-4E-BP1 peptide as a substrate in presence of ATP incubated for 45 mins by Lance ultra assay.
Experiment [3] concerns MDA-MB-231. As to the kind of experiment: Antiproliferative activity against human MDA-MB-231 cells assessed as reduction in cell viability incubated for 48 hrs by MTT assay. The conditions noted are these: MDA-MB-231, 48 h. The experiment is classed as functional, cell-based.
Experiment [4] relates to HepG2. The experiment in a line: Antiproliferative activity against human HepG2 cells assessed as reduction in cell viability incubated for 48 hrs by MTT assay. The experiment is classed as functional, cell-based. The conditions noted are these: HepG2, 48 h.
Experiment [5] deals with HCT-116. The experiment in a line: Antiproliferative activity against human HCT-116 cells assessed as reduction in cell viability incubated for 48 hrs by MTT assay. The experiment is classed as functional, cell-based. To be noted: HCT-116, 48 h.
Experiment [6] has as its target Phosphatidylinositol 4,5-bisphosphate 3-kinase catalytic subunit alpha isoform (Homo sapiens, UniProt P42336). The experiment in a line: Inhibition of PI3Kalpha (unknown origin) using PIP2 as substrate in presence of ATP incubated for 60 mins by ADP-glo based luminescence assay.
For experiment [7], the system named is HeLa. The experiment in a line: Antiproliferative activity against human HeLa cells assessed as reduction in cell viability incubated for 48 hrs by MTT assay. Type of experiment: functional, cell-based.
Experiment [8] concerns MCF7. As to the kind of experiment: Antiproliferative activity against human MCF7 cells assessed as reduction in cell viability incubated for 48 hrs by MTT assay. Type of experiment: functional, cell-based. The conditions noted are these: MCF7, 48 h.

Bounds are passed on as bounds.

Sequence of Phosphatidylinositol 4,5-bisphosphate 3-kinase catalytic subunit alpha isoform (P42336 whole entry, canonical isoform): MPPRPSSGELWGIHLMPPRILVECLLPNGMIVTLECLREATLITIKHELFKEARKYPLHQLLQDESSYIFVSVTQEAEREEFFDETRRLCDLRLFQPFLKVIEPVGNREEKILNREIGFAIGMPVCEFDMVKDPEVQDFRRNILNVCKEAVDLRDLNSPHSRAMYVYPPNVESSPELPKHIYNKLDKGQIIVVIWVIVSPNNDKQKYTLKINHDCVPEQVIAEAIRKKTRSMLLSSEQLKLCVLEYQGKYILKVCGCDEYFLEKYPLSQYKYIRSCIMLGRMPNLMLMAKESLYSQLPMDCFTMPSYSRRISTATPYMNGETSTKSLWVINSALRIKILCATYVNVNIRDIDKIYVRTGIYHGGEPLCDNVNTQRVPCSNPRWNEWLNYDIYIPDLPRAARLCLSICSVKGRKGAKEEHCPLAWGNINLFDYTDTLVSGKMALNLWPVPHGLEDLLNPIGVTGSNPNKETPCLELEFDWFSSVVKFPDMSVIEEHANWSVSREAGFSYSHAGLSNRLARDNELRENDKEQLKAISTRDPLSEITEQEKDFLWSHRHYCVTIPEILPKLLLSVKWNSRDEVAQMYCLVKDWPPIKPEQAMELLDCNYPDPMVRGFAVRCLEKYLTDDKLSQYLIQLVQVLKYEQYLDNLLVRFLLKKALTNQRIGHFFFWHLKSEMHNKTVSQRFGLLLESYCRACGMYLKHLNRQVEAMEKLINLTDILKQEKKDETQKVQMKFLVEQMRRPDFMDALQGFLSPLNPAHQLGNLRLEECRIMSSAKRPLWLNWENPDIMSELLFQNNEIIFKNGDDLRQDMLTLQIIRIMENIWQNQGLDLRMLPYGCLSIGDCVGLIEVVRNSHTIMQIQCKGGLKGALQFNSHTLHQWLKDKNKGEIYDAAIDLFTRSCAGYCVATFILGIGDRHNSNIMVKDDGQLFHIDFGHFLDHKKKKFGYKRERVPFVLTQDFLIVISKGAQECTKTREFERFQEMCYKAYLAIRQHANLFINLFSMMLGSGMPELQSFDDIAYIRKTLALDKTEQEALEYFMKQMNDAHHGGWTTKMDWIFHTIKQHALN

Turning to `CN(C)[C@H]1C[C@@H](C(N)=O)N(C(=O)c2ccc(NC(=O)Nc3ccc(-c4nc(N5CCOCC5)nc(N5CCOCC5)n4)cc3)cc2)C1`, the IC50 in experiment [1] stood at 6670 nM; in experiment [2] it was 3.1 nM; in experiment [3], 19200 nM; in experiment [4], 18700 nM; in experiment [5], 2480 nM; in experiment [6], 9.1 nM. Moreover, the IC50 in experiment [7] was 28500 nM.
Take `NC(=O)[C@@H]1CCCN1C(=O)c1ccc(NC(=O)Nc2ccc(-c3nc(N4CCOCC4)nc(N4C[C@@H]5OCCO[C@H]5C4)n3)cc2)cc1`: the concentration for half-maximal inhibition (IC50) in experiment [1] is 950 nM; in experiment [2], 5.7 nM; in experiment [3] it was 620 nM; in experiment [5], 780 nM; in experiment [6], 4.3 nM; in experiment [7] it was 560 nM.
On to `NC(=O)[C@@H]1CCCN1C(=O)c1ccc(NC(=O)Nc2ccc(-c3cc(N4CCOCC4)ncn3)cc2)cc1`, for which, in experiment [6], the half-inhibitory concentration (IC50) was more than 1000 nM.
On to `C[C@H]1COCCN1c1ccnc(-c2ccc(NC(=O)Nc3ccc(C(=O)N4CCC[C@H]4C(N)=O)cc3)cc2)n1`, for which the values for the half-inhibitory concentration (IC50) in experiment [2] and in experiment [6] were 9.2 nM and 28.7 nM, respectively.
Regarding `NC(=O)C1CCCN1C(=O)c1ccc(NC(=O)Nc2ccc(-c3nc(N4CCOCC4)nc(N4CCOCC4)n3)cc2)cc1` (stereo not given), the IC50 in experiment [1] was 520 nM; in experiment [2], 1.4 nM; in experiment [3], 6780 nM; in experiment [5] it was 200 nM; in experiment [6], 0.6 nM; in experiment [7], 8600 nM. The IC50 in experiment [8] came to 4850 nM.
Take `CN(C)C1CCN(C(=O)c2cnc(Nc3ccc(-c4nc(N5CCOCC5)nc(N5CCOCC5)n4)cc3)nc2)CC1`: in experiment [6], the IC50 was more than 1000 nM.
Turning to `C[C@H]1COCCN1c1nc(-c2ccc(NC(=O)Nc3ccc(C(=O)N4CCC(C(N)=O)CC4)cc3)cc2)nc(N2CCOCC2)n1`, the IC50 stood at 670 nM in experiment [1]; 1.2 nM in experiment [2]; 1740 nM in experiment [3]; 540 nM in experiment [4]; 380 nM in experiment [5]; 4.3 nM in experiment [6]. For the same compound, in experiment [7], the half-inhibitory concentration (IC50) stood at 210 nM.
`CN(C)C1CCN(C(=O)c2ccc(NC(=O)Nc3ccc(-c4cc(N5CCOCC5)nc(N5CCOCC5)n4)cc3)cc2)CC1`: the IC50 was found to be 1460 nM in experiment [1]; 6.2 nM in experiment [2]; 7570 nM in experiment [3]; 1610 nM in experiment [5]; 31.8 nM in experiment [6]; 4740 nM in experiment [7]. In addition, in experiment [8], the IC50 was found to be 9280 nM.
On to `NC(=O)[C@@H]1CCCN1C(=O)c1cnc(Nc2ccc(-c3nc(N4CCOCC4)nc(N4CCOCC4)n3)cc2)nc1`, for which the IC50 in experiment [6] worked out at 680 nM.
Turning to `NC(=O)[C@@H]1C[C@@H]2C[C@@H]2N1C(=O)c1ccc(NC(=O)Nc2ccc(-c3nc(N4CCOCC4)nc(N4CCOCC4)n3)cc2)cc1`, the 50% inhibitory concentration (IC50) was determined as 9160 nM in experiment [1]; 2 nM in experiment [2]; 9890 nM in experiment [3]; 1960 nM in experiment [5]; 1.9 nM in experiment [6]; 15600 nM in experiment [7]. Besides, the IC50 in experiment [8] was found to be 10500 nM.
For `NC(=O)[C@H]1CCCN1C(=O)c1ccc(NC(=O)Nc2ccc(-c3cc(N4CCOCC4)nc(N4CCOCC4)n3)cc2)cc1`, the IC50 in experiment [1] was found to be 3830 nM; in experiment [2] it was 7.3 nM; in experiment [3], 16400 nM; in experiment [5], 6130 nM; in experiment [6], 5.7 nM; in experiment [7], 6980 nM.
Turning to `NC(=O)[C@@H]1CCCN1C(=O)Nc1ccc(-c2nccc(N3CCOCC3)n2)cc1`, the results for the half-inhibitory concentration (IC50) in experiment [2] and in experiment [6] were 10.3 nM and more than 1000 nM, respectively.
Turning to `O=C(Nc1ccc(C(=O)N2CCCC2C(=O)O)cc1)Nc1ccc(-c2nc(N3CCOCC3)nc(N3CCOCC3)n2)cc1` (stereo not given), the IC50 in experiment [1] turned out to be 2560 nM; in experiment [2], 3.7 nM; in experiment [3] it was 29100 nM; in experiment [6], 11 nM; in experiment [7] it was 11700 nM; in experiment [8], 7150 nM.

The values are drawn from ChEMBL document CHEMBL5046253, “Synthesis and bioevaluation of diaryl urea derivatives as potential antitumor agents for the treatment of human colorectal cancer” (Eur J Med Chem, 2022).
